The values below come from patent US12319709B2, “Diaryl trehalose compounds and uses thereof” (THE UNIVERSITY OF MONTANA, priority 2018, dated 2025).

Assay [1] has as its system peripheral blood mononuclear cells (PBMCs). In words: IL-6 induction in fresh human PBMCs. Format: cell-based. As to conditions: for Maximum cytokine response h-IL-6 / Minimal Effective Concentration h-IL-6: human IL-6, NR = no response. On the procedure:
Tumor necrosis factor alpha (TNFα) and IL-6 production in peripheral blood mononuclear cells (PBMCs) was measured after exposure to various concentrations of the DAT compounds synthesized as shown above. Initial studies focused on two different methods of delivery of the DAT compounds to PBMC cultures. In the first delivery method, the indicated derivative compound was dissolved in isopropanol, serially diluted, and then dried to the bottom of a tissue culture plate. In the second delivery method, the indicated derivative compound was dissolved in DMSO and serially diluted into tissue culture media. In each method, PBMCs were added to the compounds and incubated at 37° C. TNFα (FIG. 1A) and IL-6 (FIG. 1B) were measured after 18-24 hours after treatment by ELISA assay.
The isolated PBMCs were exposed to increasing concentrations of the indicated compounds resuspended in DMSO and serially diluted in media. IL-6 levels were determined from supernatants eighteen hours after treatment (FIG. 3).

The next assay deals with RAW264.7 cells. The assay can be described thus: Cytokine (TNFα) response of mouse macrophage cell line; Table 2 'Murine'. It is filed as cell-based. Details: Maximum cytokine response Murine: unit not given here. As to conditions: NR = no response. How it is done:
Compounds were also tested in a mouse macrophage cell line (FIG. 4B). RAW264.7 cells were subjected to increasing concentrations of the compounds and assessed for production of the cytokine TNFα.

As for `COc1cc(OC)cc(C(=O)OC[C@H]2O[C@H](O[C@H]3O[C@H](COC(=O)c4cc(OC)cc(OC)c4)[C@@H](O)[C@H](O)[C@H]3O)[C@H](O)[C@@H](O)[C@@H]2O)c1` [UM1014], the “IL-6 production / activity in fresh PBMCs from multiple donors (in words)” value in assay [1] (compounds in DMSO serially diluted in media, supernatants 18 h after treatment, listed as 1014) was “inactive”. Also, in the assay on RAW264.7 cells (listed as 1014), the “Maximum cytokine response Murine” value came to 3.3 and the “Minimal Effective Concentration Murine” value was determined as 37 µM.
`Cc1cc(C)cc(C(=O)OCC2OC(OC3OC(COC(=O)c4cc(C)cc(C)c4)C(O)C(O)C3O)C(O)C(O)C2O)c1` (stereo not drawn) [UM1016]: in assay [1], the “Maximum cytokine response h-IL-6” value stood at 1.5 OD and the “Minimal Effective Concentration h-IL-6” value is 1000 µM. Besides, in the assay on RAW264.7 cells, the “Maximum cytokine response Murine” value worked out at 3 and the “Minimal Effective Concentration Murine” value was 4.1 µM.
In the case of `COc1cccc(/C=C/C(=O)OC[C@H]2O[C@H](O[C@H]3O[C@H](COC(=O)/C=C/c4cccc(OC)c4OC)[C@@H](O)[C@H](O)[C@H]3O)[C@H](O)[C@@H](O)[C@@H]2O)c1OC` [UM1018], in assay [1], the “Maximum cytokine response h-IL-6” value was determined as 1.3 OD and the “Minimal Effective Concentration h-IL-6” value came to 333 µM. Further, in the assay with RAW264.7 cells, the “Maximum cytokine response Murine” value was determined as 3.5 and the “Minimal Effective Concentration Murine” value was 37 µM.
Consider `Cc1ccccc1-c1cccc(C(=O)OC[C@H]2O[C@H](O[C@H]3O[C@H](COC(=O)c4cccc(-c5ccccc5C)c4)[C@@H](O)[C@H](O)[C@H]3O)[C@H](O)[C@@H](O)[C@@H]2O)c1` [UM1041], for which, in assay [1], the “Maximum cytokine response h-IL-6” value turned out to be 1.3 OD and the “Minimal Effective Concentration h-IL-6” value was 5 µM. For the same molecule, in the assay with RAW264.7 cells, the “Maximum cytokine response Murine” value is 1.2 and the “Minimal Effective Concentration Murine” value turned out to be 33 µM.
`O=C(OC[C@H]1O[C@H](O[C@H]2O[C@H](COC(=O)c3ccccc3C(F)(F)F)[C@@H](O)[C@H](O)[C@H]2O)[C@H](O)[C@@H](O)[C@@H]1O)c1ccccc1C(F)(F)F` [UM1042]: in assay [1], the “Maximum cytokine response h-IL-6” value was 2 OD and the “Minimal Effective Concentration h-IL-6” value was 50 µM. Moreover, in the assay on RAW264.7 cells, the “Maximum cytokine response Murine” value is reported as 0.9 and the “Minimal Effective Concentration Murine” value is 11 µM.
`CC(C)(C)c1cc(C(C)(C)C)c(O)c(C(=O)OC[C@H]2O[C@H](O[C@H]3O[C@H](COC(=O)c4c(O)c(C(C)(C)C)cc(C(C)(C)C)c4O)[C@@H](O)[C@H](O)[C@H]3O)[C@H](O)[C@@H](O)[C@@H]2O)c1O` [UM1046]: in assay [1], the “Maximum cytokine response h-IL-6” value came out at 3 OD and the “Minimal Effective Concentration h-IL-6” value turned out to be 20 µM. In addition, in the assay with RAW264.7 cells, the “Maximum cytokine response Murine” value is recorded as 0.8 and the “Minimal Effective Concentration Murine” value came out at 0.4 µM.
As for `CC(C)(C)c1cc(C(=O)OC[C@H]2O[C@H](O[C@H]3O[C@H](COC(=O)c4cc(C(C)(C)C)cc(C(C)(C)C)c4)[C@@H](O)[C@H](O)[C@H]3O)[C@H](O)[C@@H](O)[C@@H]2O)cc(C(C)(C)C)c1` [UM1047], in assay [1], the “Maximum cytokine response h-IL-6” value is recorded as 1 OD and the “Minimal Effective Concentration h-IL-6” value turned out to be 11 µM. Moreover, in the assay on RAW264.7 cells, the “Maximum cytokine response Murine” value is reported as 0.9 and the “Minimal Effective Concentration Murine” value turned out to be 1.2 µM.
With `CCOc1cc(C(=O)OCC2OC(OC3OC(COC(=O)c4cc(OCC)c(OCC)c(OCC)c4)C(O)C(O)C3O)C(O)C(O)C2O)cc(OCC)c1OCC` (stereo not drawn) [UM1049], in assay [1], the “Maximum cytokine response h-IL-6” value is 3.3 OD and the “Minimal Effective Concentration h-IL-6” value is 2 µM. Also, in the assay with RAW264.7 cells, the “Maximum cytokine response Murine” value is listed as 1.3 and the “Minimal Effective Concentration Murine” value stood at 0.13 µM.
In the case of `CCCOc1cc(OCCC)cc(C(=O)OC[C@H]2O[C@H](O[C@H]3O[C@H](COC(=O)c4cc(OCCC)cc(OCCC)c4)[C@@H](O)[C@H](O)[C@H]3O)[C@H](O)[C@@H](O)[C@@H]2O)c1` [UM1050], in assay [1], the “Maximum cytokine response h-IL-6” value was determined as 3.3 OD and the “Minimal Effective Concentration h-IL-6” value came out at 9 µM.
For `CCCCOc1cc(OCCCC)cc(C(=O)OC[C@H]2O[C@H](O[C@H]3O[C@H](COC(=O)c4cc(OCCCC)cc(OCCCC)c4)[C@@H](O)[C@H](O)[C@H]3O)[C@H](O)[C@@H](O)[C@@H]2O)c1` [UM1051], in assay [1], the “Maximum cytokine response h-IL-6” value is recorded as 2.5 OD and the “Minimal Effective Concentration h-IL-6” value was 6 µM. Moreover, in the assay on RAW264.7 cells, the “Maximum cytokine response Murine” value was found to be 1.3 and the “Minimal Effective Concentration Murine” value was 0.13 µM.
`CCCCCOc1cc(OCCCCC)cc(C(=O)OC[C@H]2O[C@H](O[C@H]3O[C@H](COC(=O)c4cc(OCCCCC)cc(OCCCCC)c4)[C@@H](O)[C@H](O)[C@H]3O)[C@H](O)[C@@H](O)[C@@H]2O)c1` [UM1052]: in assay [1], the “Maximum cytokine response h-IL-6” value is 3.3 OD and the “Minimal Effective Concentration h-IL-6” value was 0.08 µM. In the assay with RAW264.7 cells, the “Maximum cytokine response Murine” value came to 1.3 and the “Minimal Effective Concentration Murine” value is 0.13 µM.
Regarding `O=C(OC[C@H]1O[C@H](O[C@H]2O[C@H](COC(=O)c3cccc(C(F)(F)F)c3O)[C@@H](O)[C@H](O)[C@H]2O)[C@H](O)[C@@H](O)[C@@H]1O)c1cccc(C(F)(F)F)c1O` [UM1053], in assay [1], the “Maximum cytokine response h-IL-6” value is reported as 0.5 OD and the “Minimal Effective Concentration h-IL-6” value is 100 µM.
With `O=C(OC[C@H]1O[C@H](O[C@H]2O[C@H](COC(=O)c3cc(C(F)(F)F)cc(C(F)(F)F)c3)[C@@H](O)[C@H](O)[C@H]2O)[C@H](O)[C@@H](O)[C@@H]1O)c1cc(C(F)(F)F)cc(C(F)(F)F)c1` [UM1054], in assay [1], the “Maximum cytokine response h-IL-6” value is reported as 1.5 OD and the “Minimal Effective Concentration h-IL-6” value turned out to be 100 µM.
`O=C(OC[C@H]1O[C@H](O[C@H]2O[C@H](COC(=O)c3cccc(-c4ccccc4O)c3)[C@@H](O)[C@H](O)[C@H]2O)[C@H](O)[C@@H](O)[C@@H]1O)c1cccc(-c2ccccc2O)c1` [UM1060]: in assay [1], the “Maximum cytokine response h-IL-6” value is given as 3.3 OD and the “Minimal Effective Concentration h-IL-6” value was 33.3 µM.
Turning to `O=C(OC[C@H]1O[C@H](O[C@H]2O[C@H](COC(=O)c3ccc(-c4ccccc4)cc3O)[C@@H](O)[C@H](O)[C@H]2O)[C@H](O)[C@@H](O)[C@@H]1O)c1ccc(-c2ccccc2)cc1O` [UM1062], in assay [1], the “Maximum cytokine response h-IL-6” value is on record as 3 OD and the “Minimal Effective Concentration h-IL-6” value is 100 µM. Moreover, in the assay on RAW264.7 cells, the “Maximum cytokine response Murine” value is 3 and the “Minimal Effective Concentration Murine” value amounted to 100 µM.
Regarding `O=C(OC[C@H]1O[C@H](O[C@H]2O[C@H](COC(=O)c3c(C(F)(F)F)cccc3C(F)(F)F)[C@@H](O)[C@H](O)[C@H]2O)[C@H](O)[C@@H](O)[C@@H]1O)c1c(C(F)(F)F)cccc1C(F)(F)F` [UM1065], in assay [1], the “Maximum cytokine response h-IL-6” value worked out at 3 OD and the “Minimal Effective Concentration h-IL-6” value turned out to be 3.7 µM. For the same molecule, in the assay on RAW264.7 cells, the “Maximum cytokine response Murine” value stood at 2.5 and the “Minimal Effective Concentration Murine” value stood at 100 µM.
On the same counts, the results for `O=C(OC[C@H]1O[C@H](O[C@H]2O[C@H](COC(=O)c3cc(C(F)(F)F)ccc3C(F)(F)F)[C@@H](O)[C@H](O)[C@H]2O)[C@H](O)[C@@H](O)[C@@H]1O)c1cc(C(F)(F)F)ccc1C(F)(F)F` [UM1066] are 2.6 OD, 33.3 µM, 3 and 100 µM.
As for `COc1ccc(-c2ccc(C(=O)OC[C@H]3O[C@H](O[C@H]4O[C@H](COC(=O)c5ccc(-c6ccc(OC)cc6)cc5)[C@@H](O)[C@H](O)[C@H]4O)[C@H](O)[C@@H](O)[C@@H]3O)cc2)cc1` [UM1070], in assay [1], the “Maximum cytokine response h-IL-6” value is 3 OD and the “Minimal Effective Concentration h-IL-6” value was 33.3 µM. In addition, in the assay on RAW264.7 cells, the “Maximum cytokine response Murine” value came out at 2 and the “Minimal Effective Concentration Murine” value was found to be 100 µM.
For `Cc1cccc(Nc2ccccc2C(=O)OC[C@H]2O[C@H](O[C@H]3O[C@H](COC(=O)c4ccccc4Nc4cccc(C)c4C)[C@@H](O)[C@H](O)[C@H]3O)[C@H](O)[C@@H](O)[C@@H]2O)c1C` [UM1074], in assay [1], the “Maximum cytokine response h-IL-6” value was 3.5 OD and the “Minimal Effective Concentration h-IL-6” value stood at 33.3 µM. In the assay with RAW264.7 cells, the “Maximum cytokine response Murine” value came out at 2 and the “Minimal Effective Concentration Murine” value was 1.2 µM.
As to `COc1cc(C(=O)OC[C@H]2O[C@H](O[C@H]3O[C@H](COC(=O)c4cc(OC)c(Br)c(OC)c4)[C@@H](O)[C@H](O)[C@H]3O)[C@H](O)[C@@H](O)[C@@H]2O)cc(OC)c1Br` [UM1077], in assay [1], the “Maximum cytokine response h-IL-6” value was 2.5 OD and the “Minimal Effective Concentration h-IL-6” value was 100 µM.
On to `CCOc1cc(C(C)(C)C)ccc1C(=O)OC[C@H]1O[C@H](O[C@H]2O[C@H](COC(=O)c3ccc(C(C)(C)C)cc3OCC)[C@@H](O)[C@H](O)[C@H]2O)[C@H](O)[C@@H](O)[C@@H]1O` [UM1132], for which, in assay [1], the “Maximum cytokine response h-IL-6” value came to 2.6 OD and the “Minimal Effective Concentration h-IL-6” value was 100 µM.
As to `CCOc1cc(C(=O)OC[C@H]2O[C@H](O[C@H]3O[C@H](COC(=O)c4ccc(OCc5ccccc5)c(OCC)c4)[C@@H](O)[C@H](O)[C@H]3O)[C@H](O)[C@@H](O)[C@@H]2O)ccc1OCc1ccccc1` [UM1134], in assay [1], the “Maximum cytokine response h-IL-6” value amounted to 0.5 OD and the “Minimal Effective Concentration h-IL-6” value came to 100 µM.
On the same counts, the results for `Cc1ccc(C)c(C(C)(C)CC(=O)OC[C@H]2O[C@H](O[C@H]3O[C@H](COC(=O)CC(C)(C)c4cc(C)ccc4C)[C@@H](O)[C@H](O)[C@H]3O)[C@H](O)[C@@H](O)[C@@H]2O)c1` [UM1137] are 1 OD and 100 µM.
